We go through 1 compound from patent US20080275018A1, “ANTIBACTERIAL AMIDE-MACROCYCLES V” (AiCuris GmbH & Co. KG, priority 2005, published 2008).

SMILES strings stand for the structures. Counter-ions that a name gives are not always drawn.

Assay [1] has as its target S. aureus 133 Translation. Put plainly: S. aureus in vitro transcription-translation assay (firefly luciferase, S30 extract). Format: biochemical. As to conditions: 50% inhibition of the translation of firefly luciferase. The text has this: For the construction of a reporter plasmid which can be used in an in vitro transcription-translation assay from S. aureus the plasmid pBESTluc (Promega Corporation, USA) is used. The E. coli tac promoter present in this plasmid in front of the firefly luciferase is replaced by the capA1 promoter with corresponding Shine-Dalgarno sequence from S. aureus. The primers CAPFor 5′-[…]-[…] GCCA-3′ and CAPRev 5′-[…]-3′ are used for this. The primer CAPFor contains the capA1 promoter, the ribosome binding site and the 5′ region of the luciferase gene. After PCR using pBESTluc as template it is possible to isolate a PCR product which contains the firefly luciferase gene with the fused capA1 promoter. This is, after restriction with ClaI and HindIII, ligated into the vector pBESTluc which has likewise been digested with ClaI and HindIII. The resulting plasmid pla can be replicated in E. coli and be used as template in the S. aureus in vitro transcription-translation test.
Six litres of BHI medium are inoculated with a 250 ml overnight culture of an S. aureus Strain and allowed to grow at 37° C. until the OD600 nm is 2-4. The cells are harvested by centrifugation and washed in 500 ml of cold buffer A (10 mM Tris acetate, pH 8.0, 14 mM magnesium acetate, 1 mM DTT, 1 M KCl). After renewed centrifugation, the cells are washed in 250 ml of cold buffer A with 50 mM KCl, and the resulting pellets are frozen at −20° C. for 60 min. The pellets are thawed on ice in 30 to 60 min and taken up to a total volume of 99 ml in buffer B (10 mM Tris acetate, pH 8.0, 20 mM magnesium acetate, 1 mM DTT, 50 mM KCl). 1.5 ml portions of lysostaphin (0.8 mg/ml) in buffer B are provided in 3 precooled centrifuge cups and each mixed with 33 ml of the cell suspension. The samples are incubated at 37° C., shaking occasionally, for 45 to 60 min, before 150 μl of a 0.5 M DTT solution are added. The lysed cells are centrifuged at 30 000×g and 4° C. for 30 min. The cell pellet is taken up in buffer B and then centrifuged again under the same conditions, and the collected supernatants are combined. The supernatants are centrifuged again under the same conditions, and 0.25 volumes of buffer C (670 mM Tris acetate, pH 8.0, 20 mM magnesium acetate, 7 mM Na3 phosphoenolpyruvate, 7 mM DTT, 5.5 mM ATP, 70 μM amino acids (complete from Promega), 75 μg of pyruvate kinase (Sigma, Germany)/ml are added to the upper ⅔ of the supernatant. The samples are incubated at 37° C. for 30 min. The supernatants are dialysed against 2 l of dialysis buffer (10 mM Tris acetate, pH 8.0, 14 mM magnesium acetate, 1 mM DTT, 60 mM potassium acetate) in a dialysis tube with a 3500 Da cut-off with one buffer change at 4° C. overnight. The dialysate is concentrated to a protein concentration of about 10 mg/ml by
covering the dialysis tube with cold PEG 8000 powder (Sigma, Germany) at 4° C. The S30 extracts can be stored in aliquots at −70° C.
The inhibition of protein biosynthesis of the compounds can be shown in an in vitro transcription-translation assay. The assay is based on the cell-free transcription and translation of firefly luciferase using the reporter plasmid pla as template and cell-free S30 extracts obtained from S. aureus. The activity of the resulting luciferase can be detected by luminescence measurement.
The amount of S30 extract or plasmid pla to be employed must be tested anew for each preparation in order to ensure an optimal concentration in the test. […] of the substance to be tested, dissolved in 5% DMSO, are introduced into an MTP. Then […] of a suitably concentrated plasmid solution pla are added. […]

The test system of the next assay is S. aureus T17. Put plainly: Minimum inhibitory concentration (MIC), biphenomycin-resistant S. aureus T17. Format: cell-based, Staphylococcus aureus. The following applies: Staphylococcus aureus; biphenomycin-resistant S. aureus T17. The protocol: (§1) The minimum inhibitory concentration (MIC) is the minimum concentration of an antibiotic with which the growth of a test microbe is inhibited over 18-24 h. The inhibitor concentration can in these cases be determined by standard microbiological methods (see, for example, The National Committee for Clinical Laboratory Standards. Methods for dilution antimicrobial susceptibility tests for bacteria that grow aerobically; approved standard-fifth edition. NCCLS document M7-A5 [ISBN 1-56238-394-9]. NCCLS, 940 West Valley Road, Suite 1400, Wayne, Pa. 19087-1898 USA, 2000). The test substances are thereby initially provided in 1:2 dilution series into 96-well round-bottom microtiter plates (Greiner) double-concentrated in 50 μl of test medium. The aerobically growing test microbes (e.g. staphylococci and enterococci), which are incubated overnight on Columbia blood agar plates (Becton-Dickinson), are, after resuspension in 0.9% NaCl, adjusted to a microbe count of about 5×10^7 microbes/ml and then diluted 1:150 in cation-adjusted MH medium (test medium). 50 μL of this suspension are pipetted onto the test preparations provided in the microtiter plates. The cultures are incubated at 37° C. for 18-24 hours. For microaerophilically growing microbes (e.g. streptococci), 2% lysed horse blood in the final concentration is added to the medium and the cultures are incubated in the presence of 5% CO2. The lowest substance concentration in each case at which no visible bacterial growth occurs any longer is defined as the MIC and is reported in μg/ml.
(§2) The minimum inhibitory concentration (MIC) is the minimum concentration of an antibiotic with which the growth of a test microbe is inhibited over 18-24 h. The inhibitor concentration can in these cases be determined by standard microbiological methods (see, for example, The National Committee for Clinical Laboratory Standards. Methods for dilution antimicrobial susceptibility tests for bacteria that grow aerobically; approved standard-fifth edition. NCCLS document M7-A5 [ISBN 1-56238-394-9]. NCCLS, 940 West Valley Road, Suite 1400, Wayne, Pa. 19087-1898 USA, 2000). The MIC of the compounds of the invention is determined in the liquid dilution test on the 96-well microtiter plate scale. The bacterial microbes are cultivated in a minimal medium (18.5 mM Na2HPO4, 5.7 mM KH2PO4, 9.3 mM NH4Cl, 2.8 mM MgSO4, 17.1 mM NaCl, 0.033 μg/ml thiamine hydrochloride, 1.2 μg/ml nicotinic acid, 0.003 μg/ml biotin, 1% glucose, 25 μg/ml of each proteinogenic amino acid with the exception of phenylalanine; [H.-P. Kroll; unpublished]) with the addition of 0.4% BH broth (test medium). In the case of Enterococcus faecium L4001, heat-inactivated fetal calf serum (FCS; GibcoBRL, Germany) is added to the test medium in a final concentration of 10%. Overnight cultures of the test microbes are diluted to an OD578 of 0.001 (to 0.01 in the case of enterococci) in fresh test medium, and incubated 1:1 with dilutions of the test substances (1:2 dilution steps) in test medium ([…]). The cultures are incubated at 37° C. for 18-24 hours; enterococci in the presence of 5% CO2.
(§3) The lowest substance concentration in each case at which no visible bacterial growth occurs any longer is defined as the MIC.
(§4) The minimum inhibitory concentration (MIC) is the minimum concentration of an antibiotic with which the growth of a test microbe is inhibited over 18-24 h. The inhibitor concentration can in these cases be determined by standard microbiological methods with modified medium in an agar dilution test (see, for example, The National Committee for Clinical Laboratory Standards. Methods for dilution antimicrobial susceptibility tests for bacteria that grow aerobically; approved standard-fifth edition. NCCLS document M7-A5 [ISBN 1-56238-394-9]. NCCLS, 940 West Valley Road, Suite 1400, Wayne, Pa. 19087-1898 USA, 2000). The bacterial microbes are cultivated on 1.5% agar plates which contain 20% defibrinated horse blood. […]

The subject of assay [2] is S. aureus 133. Put plainly: Minimum inhibitory concentration (MIC), S. aureus 133. As to conditions: Staphylococcus aureus, 133, read-out: MIC S. aureus 133. The format is cell-based, Staphylococcus aureus. The protocol:
as §1, §2, §3, §4

The subject of assay [3] is S. aureus 133. Briefly: Systemic infection with S. aureus 133 (mouse sepsis model). As to conditions: i.p. infection with S. aureus 133, i.v. therapy 30 minutes after infection, survival recorded for 6 days. Format: in vivo, mouse (female CFW1).
Experimental: For this purpose, S. aureus 133 cells are cultured overnight in BH broth (Oxoid, Germany). The overnight culture was diluted 1:100 in fresh BH broth and expanded for 3 hours. The bacteria which are in the logarithmic phase of growth are centrifuged and washed twice with a buffered physiological saline solution. A cell suspension in saline solution with an extinction of 50 units is then adjusted in a photometer (Dr Lange LP 2W). After a dilution step (1:15), this suspension is mixed 1:1 with a 10% mucine suspension. 0.2 ml of this infection solution is administered i.p. per 20 g of mouse. This corresponds to a cell count of about 1-2×10^6 microbes/mouse. The i.v. therapy takes place 30 minutes after the infection. Female CFW1 mice are used for the infection experiment. The survival of the animals is recorded for 6 days. The animal model is adjusted so that untreated animals die within 24 h after the infection.
The next assay deals with E. faecium L4001. Briefly: Minimum inhibitory concentration (MIC), E. faecium L4001. The format is cell-based, Enterococcus faecium. As to conditions: Enterococcus faecium, L4001, read-out: MIC E. faecium L4001. The protocol:
as §2, §3

As for `NCCC[C@H](N)CNC(=O)CNC(=O)[C@@H]1Cc2cccc(c2)-c2ccc(O)c(c2)C[C@H](N)C(=O)N[C@@H](C[C@@H](O)CN)C(=O)N1` [Example 2, (8S,11S,14S)-14-Amino-11-[(2R)-3-amino-2-hydroxypropyl]-N-(2-{[(2S)-2,5-diaminopentyl]-amino}-2-oxoethyl)-17-hydroxy-10,13-dioxo-9,12-diazatricyclo[14.3.1.1^2,6]henicosa-1(20),2(21),3,5,16,18-hexaene-8-carboxamide tetrahydrochloride], the IC50 in assay [1] stood at 70 nM. For the same compound, the MIC is 1 µg/mL in the assay with S. aureus T17, 1 µg/mL with S. aureus 133 [2] and 2 µg/mL in the assay on E. faecium L4001. For the same compound, in the assay with S. aureus 133 [3], the “therapeutic effect ED100” value came out at 1.25 mg/kg.
